Results on two compounds are retold here after patent US10292979B2, “Methods of treating cancer patients with farnesyltransferase inhibitors” (Kura Oncology, Inc., priority 2015, dated 2019).

Series [1] has as its system tumor in nude mice. Particulars: cited from earlier work.
For series [2], the system named is salivary gland cancers with HRAS mutations. Description: Phase 2 trial of tipifarnib in advanced tumors with HRAS mutation, cohort 2. It counts as in vivo, human. The text has this:
(§1) A Phase 2 clinical trial was initiated to use tipifarnib in the treatment of advanced tumors with a known HRAS mutation. The clinical trial design includes enrolling 2 cohorts of 18 patients each. Cohort 1 enrolls subjects with malignant thyroid tumors with HRAS mutations, independent of thyroid histology. Cohort 2 enrolls any subject with a non-hematological HRAS mutant tumor other than thyroid cancer who meets eligibility criteria.
(§2) This clinical trial was designed to include two stages, with the first stage including 11 evaluable patients, and the second stage including 7 additional evaluable patients, and a cohort would not proceed to the second stage if one or no objective response is observed in a cohort in the first stage. The clinical trial is considered positive if at least 4 responses are observed in a cohort out of 18 subjects. The primary endpoint is objective response rate, and tumor response assessments are conducted according to the Response Evaluation Criteria in Solid Tumors version 1.1 criteria (confirmation of response is required).
(§3) According to the protocol, tipifarnib is administered to enrolled patients at a starting dose of 900 mg, orally with food, twice a day (b.i.d.) for 7 days in alternating weeks (Days 1-7 and 15-21) in 28 day cycles. At the discretion of the investigator, the dose of tipifarnib can be increased to 1200 mg b.i.d. if the subject has not experienced dose limiting toxicities at the 900 mg dose level. Subjects who develop serious adverse events (SAE) or ≥grade 2 treatment-emergent adverse events (TEAE) that are deemed related to tipifarnib and lasting ≥14 days will not undergo dose escalation. Stepwise 300 mg dose reductions to control treatment-related, treatment-emergent toxicities are also allowed.
(§4) Four (4) evaluable patients were enrolled in the first cohort (patients with malignant thyroid tumors with HRAS mutations) and eleven (11) evaluable patients were enrolled in the second cohort (patients with non-hematologic malignancies other than thyroid cancer with HRAS mutations). In the second cohort, three (3) of those patients have relapsed/refractory head-and-neck carcinoma and two (2) of those three (3) experienced confirmed objective partial responses (PR) and a third patient experienced disease stabilization beyond six months (>8 months). All three head and neck carcinoma patients are HPV negative. All head and neck patients remain on study. […] In addition, five (5) patients enrolled patients have salivary gland cancers with HRAS mutations, and three (3) of them experienced disease stabilization beyond six months (>7, 9 and >11 months). Cohort 2 was proceeded into the second stage of the trial for enrolment of additional seven patients per the trial protocol.

In series [3] the test system is relapsed/refractory head-and-neck carcinoma with HRAS mutations. The series is described as above. The series is classed as in vivo, human.
Text: as §1, §2, §3, §4

Series [4] relates to previously untreated elderly or unfit AML patients. Nature of the series: CTEP-20 phase 2 trial of tipifarnib, outcome by N-RAS gene status. Particulars: for PFS: FIG. 8; for ORR (response rate): FIG. 9. It counts as in vivo, human. On the procedure:
CTEP-20 was a phase 2 clinical trial of tipifarnib in previously untreated elderly or unfit AML patients. (Raponi et al., Blood 111:2589-96 (2008)).
N-RAS gene status was determined for 32 patients. […] Accordingly, AML patients can be selected based on mutation status of RAS gene for tipifarnib treatment in order to increase the responsiveness to the treatment.

Series [5] concerns AML patients. Nature of the series: Clinical outcome of AML patients treated with tipifarnib versus NK cell biomarker expression in bone marrow (GSE8970/CTEP-20, GSE5122). Conditions: for Exp(b), Cox proportional hazards regression: AML patients treated with tipifarnib. It counts as in vivo, human. The method, then:
The current study used microarray data generated from global gene expression assay of bone marrow samples collected in two clinical studies investigating the efficacy and safety of FTI tipifarnib. One clinical study was conducted in adult patients aged 65 years or older with previously untreated AML, and the other conducted in relapsed and refractory AML. The clinical results for these studies were previously published (Lancet et al., Blood 109:1387-1394 (2007); Harousseau et al., Blood 9:9 (2007); Raponi et al., Clin. Cancer Res. 13:2254-2260 (2007)), and the gene profiling data were publically available in NCBI's Gene Expression Omnibus (GEO, http://www.ncbi.nlm.nih.gov/geo) and are assessable through GEO Series accession numbers GSE8970 and GSE5122.
As described in Raponi et al., Blood 111:2589-96 (2008), BM samples were collected from consenting patients before treatment with tipifarnib, and mononuclear cells were processed on site. Total RNA was extracted from cell samples, quality controlled, and further processed for microarray analysis. DNA was isolated from the same sample. Samples were assayed for global gene expression, and/or quantitative polymerase chain reaction (QPCR) of specific genes).
Briefly, CR was defined as BM showing less than 5% myeloblasts with normal maturation of all cell lines, absolute neutrophil count (ANC) of at least 10^9/L (1000/μL), and a platelet count of 100×10^9/L (100 000/μL). PR was defined as the presence of recovery of ANC and platelets to the above stated levels, but with 5% to 19% BM blasts, and a greater than 50% decrease in BM blast percentage from baseline. HI was defined as the same as PR, except with recovery of ANC to 0.5 to 1×10^9/L (500 to 1000/μL) and platelet count to 20 to 100×10^9/L (20 000 to 100 000/μL). Progressive disease (PD) was defined as any of the following: more than 50% increase in BM blast percentage from baseline (more than 5% blasts if baseline is less than 5%, more than 10% blasts if baseline is 5% to 10%, and more than 20% blasts if baseline 10% to 20%); greater than 50% increase in circulating blasts; new appearance of circulating blasts on at least 2 consecutive occasions; or development of extramedullary leukemia. Stable disease (SD) was defined as any response not meeting CR, PR, HI, or PD criteria.
Kaplan Meier curves were used to investigate the relationship between biomarker values and clinical benefit. The identification of multiple NK cell related genes, the long duration of response observed in some tipifarnib patients, and the role of RAS mediated signal transduction in NK cells support that the responsiveness of AML patients to tipifarnib treatment could be resulted from bone marrow infiltrates of immune cells.

[6] abbreviates: AML patients with wild type N-RAS.
Where [7] appears, read: 34 previously untreated poor-risk and elderly AML patients.
The mark [8] stands for this setting: AML patients with 2DS2/2DL2 ratio at the highest (4th) quartile.

Structures are written as SMILES. Values joined by “and” are separate entries in the source; they are usually repeats but may differ in a detail not shown here. Equal entries are not always repeated.

With `CC[C@H](C)[C@@H](CO[C@@H](Cc1ccccc1)C(=O)N[C@@H](CCS(C)(=O)=O)C(=O)O)NC[C@@H](N)CS` [L-739749, 2(S)-[2(S)-[2(R)-amino-3-mercapto]propylamino-3(S)-methyl]-pentyloxy-3-phenylpropionyl-methionine sulfone], in series [1], the antitumor activity result is given as “potent antitumor activity” and the toxicity entry was “without system toxicity”.

On to `Cn1cncc1[C@@](N)(c1ccc(Cl)cc1)c1ccc2c(c1)c(-c1cccc(Cl)c1)cc(=O)n2C` [Tipifarnib, (B)-6-[amino(4-chlorophenyl)(1-methyl-1H-imidazol-5-yl)methyl]-4-(3-ch-lorophenyl)-1-methyl-2(1H)-quinolinone], for which the “number of patients with disease stabilization beyond six months” value in series [2] (of 5 patients with salivary gland cancers with HRAS mutations) worked out at 3. Moreover, the “duration of disease stabilization” value in series [2] (the three individual salivary gland cancer patients with stabilization) was > 7 months and 9 months and > 11 months; in series [3] (third head-and-neck carcinoma patient), above 8 months. For the same compound, the “number of patients with confirmed objective partial responses (PR)” value in series [3] (of 3 HPV negative relapsed/refractory head-and-neck carcinoma patients, 900 mg b.i.d. days 1-7 and 15-21 of 28 day cycles) worked out at 2. In addition, the results for the PFS in series [4] (AML patients with mutant N-RAS) and in series [4] (setting [6]) were 65 days and 157 days, respectively. Further, the entries for the “ORR (response rate)” value in series [4] (AML patients with mutant N-RAS) and in series [4] (setting [6]) were 27% and 43%, respectively. For the same compound, the “KIR2DS2 High 4th Quartile (Upper) Median Survival” value in series [5] (setting [7]) stood at 564 days. For the same compound, the “KIR2DS2 Low 1st-3rd Quartile Median Survival” value in series [5] (setting [7]) is listed as 153 days. Moreover, in series [5] (34 previously untreated poor-risk and elderly AML patients, all), the “Median Overall Survival” value is reported as 233 days. In series [5] (setting [8]), the “median OS” value is recorded as 750 days. The “median PFS” value in series [5] (setting [8]) turned out to be 431 days. The “Exp(b), Cox proportional hazards regression” value in series [5] (FIG. 2A: PFS versus KIR2DS2/KIR2DL2 expression ratio) is reported as 0.0006; in series [5] (FIG. 2B: OS versus 2DS2/2DL2 ratio) it was 0.0048; in series [5] (FIG. 4A: PFS versus 2DS5/2DL5A ratio) it was 0.0294; in series [5] (FIG. 6A: GZMM/OS) it was 0.5688; in series [5] (FIG. 6A: GZMM/PFS), 0.5568. Further, the “1-4th Q Median (survival)” value in series [5] (GSE8970 (CTEP-20), Front Line Elderly AML, 2DS2/2DL2 ratio 1st-4th quintile) was determined as 179 days. Moreover, the HR in series [5] (GSE8970 (CTEP-20), Front Line Elderly AML, 2DS2/2DL2 ratio 5th Q versus rest) turned out to be 0.21. Moreover, the “5th Q Median (survival)” value in series [5] (GSE8970 (CTEP-20), Front Line Elderly AML, 2DS2/2DL2 ratio highest quintile) was determined as 754 days. Besides, the “all Median (survival)” value in series [5] (GSE8970 (CTEP-20), Front Line Elderly AML, all patients) stood at 233 days. Besides, the “Hazards Ratio” value in series [5] (KIR2DS2 high versus low, 34 AML patients) amounted to 0.303.
